In the test the target is T1, RPK (Ripped Pocket) (Drosophila melanogaster, UniProt Q7KTQ9).
T1 sequence (Q7KTQ9 1-562): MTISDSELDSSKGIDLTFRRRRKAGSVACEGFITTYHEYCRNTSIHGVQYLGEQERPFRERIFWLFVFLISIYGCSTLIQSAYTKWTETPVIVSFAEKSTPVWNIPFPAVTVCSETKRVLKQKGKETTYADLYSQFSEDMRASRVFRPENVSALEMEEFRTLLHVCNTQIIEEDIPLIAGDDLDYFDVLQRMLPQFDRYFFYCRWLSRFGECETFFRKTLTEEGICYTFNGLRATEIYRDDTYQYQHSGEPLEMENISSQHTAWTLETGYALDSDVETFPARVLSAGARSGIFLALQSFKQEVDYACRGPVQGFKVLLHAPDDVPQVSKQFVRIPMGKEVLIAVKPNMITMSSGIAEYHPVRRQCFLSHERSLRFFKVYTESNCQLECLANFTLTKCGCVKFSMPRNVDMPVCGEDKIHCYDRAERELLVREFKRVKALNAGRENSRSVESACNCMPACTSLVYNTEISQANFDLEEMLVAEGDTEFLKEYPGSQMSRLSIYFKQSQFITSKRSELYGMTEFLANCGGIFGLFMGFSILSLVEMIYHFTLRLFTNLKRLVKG
The experiment in a line: two-electrode voltage clamp, Xenopus oocytes, dose-response of Na+ current block. In kind it is cell-based.

Usually IC50 stands for the point on the concentration scale where inhibition reaches its midpoint. Low values mean greater potency in that assay, high ones weaker potency in that assay. `N=C(N)NC(=O)c1nc(Cl)c(N)nc1N` [amiloride]: the IC50 turned out to be 9 ± 0.1 µM.

The record behind these values is article PMC2132602 (The Journal of Cell Biology, 1998).
